Reference: ChEMBL document CHEMBL1159315, “Constituents of the bark and twigs of Artocarpus dadah with cyclooxygenase inhibitory activity” (J Nat Prod, 2002)

What was measured:
[1] = Inhibition of DMBA-induced preneoplastic lesions in mouse mammary gland organ culture at 10 ug/mL; assay type: functional
[2] = molecular target: Prostaglandin G/H synthase 1 (Homo sapiens, UniProt P23219)
[3] = molecular target: T1, Prostaglandin G/H synthase 2 (Homo sapiens, UniProt P35354)
T1 sequence (P35354 whole entry): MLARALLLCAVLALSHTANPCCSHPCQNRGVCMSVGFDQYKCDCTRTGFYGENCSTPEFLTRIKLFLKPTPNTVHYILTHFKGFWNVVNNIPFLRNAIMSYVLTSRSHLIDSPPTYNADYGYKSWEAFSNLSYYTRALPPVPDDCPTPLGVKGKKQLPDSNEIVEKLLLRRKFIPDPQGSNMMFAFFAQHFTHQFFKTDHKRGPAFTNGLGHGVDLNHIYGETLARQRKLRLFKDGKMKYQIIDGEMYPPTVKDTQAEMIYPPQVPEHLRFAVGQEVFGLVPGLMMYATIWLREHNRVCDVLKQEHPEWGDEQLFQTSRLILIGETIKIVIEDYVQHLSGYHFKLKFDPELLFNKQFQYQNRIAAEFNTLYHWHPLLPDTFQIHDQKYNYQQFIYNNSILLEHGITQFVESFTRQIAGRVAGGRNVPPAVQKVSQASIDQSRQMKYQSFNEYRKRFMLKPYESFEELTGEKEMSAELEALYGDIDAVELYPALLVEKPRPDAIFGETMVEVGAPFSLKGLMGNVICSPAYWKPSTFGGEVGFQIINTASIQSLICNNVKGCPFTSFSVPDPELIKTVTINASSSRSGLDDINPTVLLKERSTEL

Chain of Prostaglandin G/H synthase 1 (P23219 whole entry): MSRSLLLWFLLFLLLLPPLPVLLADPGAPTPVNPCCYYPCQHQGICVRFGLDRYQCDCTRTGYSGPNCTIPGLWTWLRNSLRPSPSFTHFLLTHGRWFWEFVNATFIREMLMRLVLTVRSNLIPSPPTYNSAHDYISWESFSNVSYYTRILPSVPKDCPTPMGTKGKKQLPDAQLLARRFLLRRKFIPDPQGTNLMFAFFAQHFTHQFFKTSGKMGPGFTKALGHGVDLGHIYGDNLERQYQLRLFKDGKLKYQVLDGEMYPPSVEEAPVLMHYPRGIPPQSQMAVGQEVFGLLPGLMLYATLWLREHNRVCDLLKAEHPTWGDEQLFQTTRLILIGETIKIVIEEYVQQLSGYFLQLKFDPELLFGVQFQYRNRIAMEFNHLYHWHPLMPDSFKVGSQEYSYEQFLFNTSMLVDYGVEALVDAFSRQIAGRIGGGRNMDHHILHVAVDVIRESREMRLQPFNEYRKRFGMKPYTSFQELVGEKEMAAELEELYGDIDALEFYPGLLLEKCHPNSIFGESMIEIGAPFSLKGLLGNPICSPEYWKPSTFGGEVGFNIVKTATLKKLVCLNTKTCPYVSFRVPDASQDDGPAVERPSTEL

Row | SMILES | IC50 [2] | IC50 [3] | inhibition at 10 µg/mL [1]
1 | Oc1cc(O)cc(/C=C/c2ccc(O)cc2O)c1 [OXYRESVERATROL] | 1.4 µM | 109 µM | 33.3%
2 | CC1OC(OC2C(=O)c3c(O)cc(O)cc3OC2c2ccc(O)cc2)C(O)C(O)C1O (configuration not stated) [ENGELETIN] | > 230 µM | > 230 µM | 
3 | COc1cc(C(O)C(COC(=O)/C=C/c2ccc(O)cc2)Oc2c(OC)cc(/C=C/COC(=O)/C=C/c3ccc(O)cc3)cc2OC)ccc1O (configuration not stated) [DADAHOL A] | > 143 µM | > 143 µM | 
4 | CC(C)=CCc1cc(/C=C/c2cc(O)cc(O)c2)c(O)cc1O | 4.1 µM | 36.7 µM | 0%
5 | Oc1ccc(/C=C/c2cc(O)cc(O)c2)cc1 [RESVERATROL] |  |  | 87.5%
6 | C/C(=C/Cc1c(O)ccc(C(=O)/C=C/c2ccc(O)cc2)c1O)COC(=O)/C=C/c1ccc(O)cc1 [GEMICHALCONE B] | 14 µM | 38.4 µM | 33.3%
7 | C/C(=C\Cc1c(O)ccc(C(=O)/C=C/c2ccc(O)cc2)c1O)COC(=O)/C=C/c1ccc(O)cc1 [ISOGEMICHALCONE B] | 11.7 µM | 15 µM | 
8 | C[C@@H]1O[C@@H](O[C@H]2Cc3c(O)cc(O)cc3O[C@@H]2c2ccc(O)cc2)[C@H](O)[C@H](O)[C@H]1O | 8.3 µM | 19.7 µM | 0%
9 | COc1cc(C(O)C(COC(=O)/C=C/c2ccc(O)cc2)Oc2ccc(/C=C/COC(=O)/C=C/c3ccc(O)cc3)cc2OC)ccc1O (configuration not stated) [DADAHOL B] | > 150 µM | > 150 µM | 
10 | CC(C)(O)[C@H](O)Cc1cc(/C=C/c2cc(O)cc(O)c2)ccc1O | 0.48 µM | 13.9 µM | 

The next lines start with results.

Row | IC50 [2] | IC50 [3] | SMILES | inhibition at 10 µg/mL [1]
11 | 14 µM | > 100 µM | O=c1cc(-c2ccc(O)cc2O)oc2cc(O)cc(O)c12 [NORARTOCARPETIN] | 85.2%
12 | 0.61 µM | 9.5 µM | CC(C)=CCc1cc(/C=C/c2cc(O)cc(O)c2)ccc1O | 7.3%
13 | 36.7 µM |  | Oc1cc(O)c2c(c1)O[C@H](c1ccc(O)c(O)c1)[C@@H](O)C2 [CIANIDANOL] | 50%
14 | 67.1 µM | > 100 µM | O=C1c2c(O)cc(O)cc2O[C@H](c2ccc(O)cc2O)[C@H]1O [DIHYDROMORIN] | 81.5%
15 | 0.5 µM | 22.3 µM | Oc1cc(O)cc(-c2cc3ccc(O)cc3o2)c1 [MORACIN M] | 33.3%
16 |  | 69.7 µM | Oc1ccc([C@H]2Oc3cc(O)cc(O)c3C[C@H]2O)cc1 [EPIAFZELECHIN (2R,3R)(-)] | 81.5%
17 | 5.9 µM | 46.4 µM | O=C1CC(c2ccc(O)cc2O)Oc2cc(O)cc(O)c21 (configuration not stated) [STEPPOGENIN] | 66.7%
